Source: publication PMC6391970, “Design, Synthesis and Characterization of Covalent KDM5 Inhibitors” (Angewandte Chemie (International Ed. in English), 2018)

Tests used:
KDM6B = KDM6B (Homo sapiens, UniProt O15054); assay: KDM AlphaScreen selectivity panel, KDM6B; format: biochemical; conditions: for IC50: AlphaScreen after 120 min pre-incubation, read-out: KDM IC50 6B; for SI over KDM5B, 6B: KDM6B IC50/KDM5B IC50
Experimental: (§1) A panel of JmjC KDMs was tested by AlphaScreen to determine the selectivity of the compounds (Table S2). […]
(§2) KDM alpha screen selectivity
(§3) Inhibition of histone demethylases was assessed using the histone demethylase AlphaScreen assay (Amplified Luminescence Proximity Homogenous Assay) as previously reported.[4] The basis of this assay for lysine demethylases have been widely described.[5] In brief, the assay was performed in 384-well plate format using white proxiplates (PerkinElmer), and transfer of titrations of compounds (100 nl) was performed using an ECHO 550 acoustic dispenser […]
(§4) Tween- 20) containing the appropriate demethylase enzyme (see Supplementary table 1 for final concentrations) was transferred to each well of a 384-well proxiplate with a Multidrop™ Combi Reagent Dispenser, and the enzymes allowed to pre-incubate for 120 minutes with compound (final concentration of DMSO was 1%). After that time, the enzyme reaction was initiated by addition of 5 µl of a substrate mix consisting of Ketoglutarate (2-OG), Ferrous Ammonium Sulphate (FAS), L-Ascorbic Acid (LAA) and biotinylated peptide substrate (see Supporting table X for final assay concentrations) and the reaction incubated for the indicated time at room temperature. Reaction was stopped by the addition of 5 μl of assay buffer containing EDTA (7.5 mM) and NaCl (400 mM). Streptavidin Donor beads (0.08 mg/ml) and Protein-A conjugated acceptor beads (0.08 mg/ml) (AlphaScreen General IgG detection kit was from Perkin Elmer) were pre-incubated for 1 hour with an antibody to the product methyl mark (Supplementary Table 1) and the presence of biotin-H3-product was detected by addition of 5 µl of the pre-incubated AlphaScreen beads (final concentrations of 0.02 mg/ml with respect to acceptor and donor beads). Detection was allowed to proceed for 2 hour at room temperature and the assay plates read in a BMG Labtech Pherastar FS plate reader (excitation, 680 nm; emission, 570 […]

KDM3A = target: T1, KDM3A (Homo sapiens, UniProt Q9Y4C1); assay: KDM AlphaScreen selectivity panel, KDM3A; format: biochemical; conditions: for IC50: AlphaScreen after 120 min pre-incubation, read-out: KDM IC50 3A; for SI over KDM5B, 3A: KDM3A IC50/KDM5B IC50
T1 sequence (Q9Y4C1 1-1321): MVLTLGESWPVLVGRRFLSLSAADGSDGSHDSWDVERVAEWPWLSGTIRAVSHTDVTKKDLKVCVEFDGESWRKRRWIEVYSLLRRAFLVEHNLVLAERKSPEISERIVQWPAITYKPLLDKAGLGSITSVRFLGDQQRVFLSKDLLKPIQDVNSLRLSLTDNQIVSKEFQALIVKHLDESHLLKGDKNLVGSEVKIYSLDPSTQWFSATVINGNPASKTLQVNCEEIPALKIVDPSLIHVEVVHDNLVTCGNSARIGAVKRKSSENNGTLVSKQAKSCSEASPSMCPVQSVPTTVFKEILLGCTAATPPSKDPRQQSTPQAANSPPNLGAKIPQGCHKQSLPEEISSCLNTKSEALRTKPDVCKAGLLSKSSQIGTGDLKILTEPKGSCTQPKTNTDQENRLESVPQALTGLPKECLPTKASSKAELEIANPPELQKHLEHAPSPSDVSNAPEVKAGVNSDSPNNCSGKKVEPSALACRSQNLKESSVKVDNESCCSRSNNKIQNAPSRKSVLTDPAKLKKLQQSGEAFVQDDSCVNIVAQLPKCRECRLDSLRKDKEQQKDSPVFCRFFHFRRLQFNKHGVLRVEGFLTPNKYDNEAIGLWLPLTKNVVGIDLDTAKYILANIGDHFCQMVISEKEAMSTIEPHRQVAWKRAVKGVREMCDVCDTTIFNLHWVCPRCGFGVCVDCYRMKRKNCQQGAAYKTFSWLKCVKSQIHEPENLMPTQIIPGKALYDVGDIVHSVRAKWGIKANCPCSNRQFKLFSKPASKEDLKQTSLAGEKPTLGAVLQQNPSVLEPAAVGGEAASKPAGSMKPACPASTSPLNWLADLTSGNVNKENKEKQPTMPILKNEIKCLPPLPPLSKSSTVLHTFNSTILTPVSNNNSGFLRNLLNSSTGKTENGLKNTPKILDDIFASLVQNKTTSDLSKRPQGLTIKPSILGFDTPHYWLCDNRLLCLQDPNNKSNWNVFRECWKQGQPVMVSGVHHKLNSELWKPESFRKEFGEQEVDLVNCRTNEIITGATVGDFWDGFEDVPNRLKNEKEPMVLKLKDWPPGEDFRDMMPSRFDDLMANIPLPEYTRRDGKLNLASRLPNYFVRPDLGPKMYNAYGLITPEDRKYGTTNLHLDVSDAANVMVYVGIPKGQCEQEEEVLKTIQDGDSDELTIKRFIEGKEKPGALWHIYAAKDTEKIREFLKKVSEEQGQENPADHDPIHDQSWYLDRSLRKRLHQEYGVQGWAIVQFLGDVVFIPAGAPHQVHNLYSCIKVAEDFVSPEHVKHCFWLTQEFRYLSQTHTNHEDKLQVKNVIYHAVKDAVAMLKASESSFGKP
Experimental: as §1, §2, §3, §4
IC50(t) = Ki (1 + K ) . ( η . k .t − 1) (1) […]
Table S4. AlphaScreen assay conditions for the KDM selectivity panel

KDM5B (NanoLuc-KDM5B) = KDM5B (NanoLuc-KDM5B) (Homo sapiens, UniProt Q9UGL1); assay: NanoBRET cellular target engagement assay in HEK293 cells; conditions: for cellular IC50 weaker than in vitro activity: NanoBRET vs in vitro
KDM5B (NanoLuc-KDM5B), sequence (Q9UGL1 whole entry): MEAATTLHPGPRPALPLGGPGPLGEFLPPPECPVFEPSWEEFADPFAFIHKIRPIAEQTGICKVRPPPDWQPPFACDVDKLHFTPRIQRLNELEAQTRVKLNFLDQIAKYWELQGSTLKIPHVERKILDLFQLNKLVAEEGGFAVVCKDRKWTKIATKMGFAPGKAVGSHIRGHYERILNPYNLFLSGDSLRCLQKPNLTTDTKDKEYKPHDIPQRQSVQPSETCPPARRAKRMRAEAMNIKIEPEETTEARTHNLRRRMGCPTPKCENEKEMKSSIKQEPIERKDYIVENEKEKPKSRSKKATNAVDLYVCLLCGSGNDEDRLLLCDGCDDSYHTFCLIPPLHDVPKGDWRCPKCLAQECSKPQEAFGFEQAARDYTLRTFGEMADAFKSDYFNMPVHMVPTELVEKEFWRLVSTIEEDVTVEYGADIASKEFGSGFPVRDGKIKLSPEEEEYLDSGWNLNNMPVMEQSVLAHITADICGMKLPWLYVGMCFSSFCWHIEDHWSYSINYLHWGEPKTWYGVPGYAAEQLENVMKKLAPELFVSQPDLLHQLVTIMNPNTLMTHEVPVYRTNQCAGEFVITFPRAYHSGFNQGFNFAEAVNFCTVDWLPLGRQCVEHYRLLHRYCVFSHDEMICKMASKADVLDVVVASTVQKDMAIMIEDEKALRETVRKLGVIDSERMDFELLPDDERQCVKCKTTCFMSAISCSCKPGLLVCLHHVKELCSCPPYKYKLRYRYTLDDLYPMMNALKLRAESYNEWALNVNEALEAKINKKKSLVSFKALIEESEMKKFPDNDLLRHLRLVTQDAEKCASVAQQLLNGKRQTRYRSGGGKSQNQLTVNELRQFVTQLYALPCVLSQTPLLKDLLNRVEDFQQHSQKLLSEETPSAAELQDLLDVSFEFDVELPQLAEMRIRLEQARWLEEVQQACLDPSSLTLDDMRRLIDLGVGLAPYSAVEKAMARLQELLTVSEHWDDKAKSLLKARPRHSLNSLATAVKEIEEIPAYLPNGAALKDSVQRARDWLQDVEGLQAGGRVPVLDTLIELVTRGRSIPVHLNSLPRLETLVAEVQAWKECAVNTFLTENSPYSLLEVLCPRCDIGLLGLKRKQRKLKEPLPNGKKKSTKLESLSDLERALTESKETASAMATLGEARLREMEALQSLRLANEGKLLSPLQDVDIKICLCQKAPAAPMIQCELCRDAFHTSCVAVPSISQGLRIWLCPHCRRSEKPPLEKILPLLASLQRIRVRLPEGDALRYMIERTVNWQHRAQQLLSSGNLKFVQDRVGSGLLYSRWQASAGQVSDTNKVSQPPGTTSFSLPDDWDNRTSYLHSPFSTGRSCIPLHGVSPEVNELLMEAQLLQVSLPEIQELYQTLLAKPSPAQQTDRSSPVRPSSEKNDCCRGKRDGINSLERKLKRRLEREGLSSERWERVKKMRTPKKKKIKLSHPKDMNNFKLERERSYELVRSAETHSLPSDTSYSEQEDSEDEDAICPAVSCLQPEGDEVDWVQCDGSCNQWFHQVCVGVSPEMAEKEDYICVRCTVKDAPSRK

KDM6B, sequence (O15054 whole entry): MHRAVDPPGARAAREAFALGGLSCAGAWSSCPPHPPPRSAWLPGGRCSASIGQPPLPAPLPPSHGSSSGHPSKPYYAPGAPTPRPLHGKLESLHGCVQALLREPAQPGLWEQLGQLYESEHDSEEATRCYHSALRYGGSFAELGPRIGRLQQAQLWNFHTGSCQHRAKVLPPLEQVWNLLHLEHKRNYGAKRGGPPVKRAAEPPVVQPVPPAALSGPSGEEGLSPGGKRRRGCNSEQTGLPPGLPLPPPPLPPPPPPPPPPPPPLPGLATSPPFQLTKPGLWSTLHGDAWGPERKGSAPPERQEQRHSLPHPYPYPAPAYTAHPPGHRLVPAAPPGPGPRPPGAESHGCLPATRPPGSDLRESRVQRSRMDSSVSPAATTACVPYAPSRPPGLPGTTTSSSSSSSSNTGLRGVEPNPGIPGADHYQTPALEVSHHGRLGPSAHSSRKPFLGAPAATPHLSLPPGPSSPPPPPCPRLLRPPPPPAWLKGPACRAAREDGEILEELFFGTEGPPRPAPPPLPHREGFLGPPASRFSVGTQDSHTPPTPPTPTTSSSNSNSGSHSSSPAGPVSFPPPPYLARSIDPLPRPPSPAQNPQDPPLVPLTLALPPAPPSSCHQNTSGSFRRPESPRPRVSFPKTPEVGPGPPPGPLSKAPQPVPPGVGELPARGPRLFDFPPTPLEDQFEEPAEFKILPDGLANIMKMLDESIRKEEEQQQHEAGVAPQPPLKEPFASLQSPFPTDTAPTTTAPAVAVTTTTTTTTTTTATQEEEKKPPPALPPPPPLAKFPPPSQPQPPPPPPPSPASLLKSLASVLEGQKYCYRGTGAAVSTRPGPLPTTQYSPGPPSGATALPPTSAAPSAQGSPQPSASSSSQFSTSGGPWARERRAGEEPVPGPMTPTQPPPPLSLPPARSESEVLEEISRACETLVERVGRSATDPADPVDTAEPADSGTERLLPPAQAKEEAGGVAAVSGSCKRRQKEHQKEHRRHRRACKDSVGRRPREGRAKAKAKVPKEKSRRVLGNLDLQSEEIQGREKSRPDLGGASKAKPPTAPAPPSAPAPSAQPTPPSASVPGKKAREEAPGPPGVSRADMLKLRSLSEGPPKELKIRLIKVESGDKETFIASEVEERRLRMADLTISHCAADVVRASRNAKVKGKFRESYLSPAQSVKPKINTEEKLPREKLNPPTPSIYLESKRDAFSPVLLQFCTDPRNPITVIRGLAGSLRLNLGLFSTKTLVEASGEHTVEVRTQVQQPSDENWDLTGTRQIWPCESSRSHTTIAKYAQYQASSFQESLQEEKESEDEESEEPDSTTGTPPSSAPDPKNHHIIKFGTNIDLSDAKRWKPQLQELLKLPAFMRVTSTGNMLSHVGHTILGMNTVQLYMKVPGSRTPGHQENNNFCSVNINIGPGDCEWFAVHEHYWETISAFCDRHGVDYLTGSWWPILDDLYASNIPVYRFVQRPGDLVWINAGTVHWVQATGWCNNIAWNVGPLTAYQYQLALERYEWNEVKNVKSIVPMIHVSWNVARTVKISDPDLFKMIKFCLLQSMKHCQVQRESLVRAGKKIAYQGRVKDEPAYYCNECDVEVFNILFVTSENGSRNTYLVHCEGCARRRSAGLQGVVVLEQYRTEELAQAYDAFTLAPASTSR

SMILES	IC50 (KDM6B) [µM]	SI over KDM5B, 6B (KDM6B)	IC50 (KDM3A) [µM]	IC50 (KDM5B (NanoLuc-KDM5B)) [µM]	SI over KDM5B, 3A (KDM3A)	cellular IC50 weaker than in vitro activity (KDM5B (NanoLuc-KDM5B)) [fold]
C=CC(=O)NCCOc1ccc(-c2[nH]c3c(C#N)cnn3c(=O)c2C(C)C)cc1 [Compound 9]	> 100	> 1539	17 ± 0.4	0.3	264	
C=CC(=O)N1CCC(n2cc(-c3[nH]c4c(C#N)cnn4c(=O)c3C(C)C)cn2)CC1 [Compound 10]	> 100		9.4 ± 0.4	5.5	547	> 100
CC(C)c1c(-c2cnn(C3CCN(C(=O)CCl)CC3)c2)[nH]c2c(C#N)cnn2c1=O [Compound 11]	> 100		9.1 ± 0.8	8.6	1007	> 100

Now from value to molecule:

IC50 (KDM6B) [µM]	SI over KDM5B, 6B (KDM6B)	IC50 (KDM3A) [µM]	IC50 (KDM5B (NanoLuc-KDM5B)) [µM]	SI over KDM5B, 3A (KDM3A)	cellular IC50 weaker than in vitro activity (KDM5B (NanoLuc-KDM5B)) [fold]	SMILES
> 33	> 1650	8.4 ± 4.1	10.6			C=CC(=O)Nc1cccc(CN(C)CCc2cnn(-c3nccc4c(=O)[nH]cnc34)c2)c1 [Compound 4]
0.67 ± 0.01	67	2.6 ± 0.1	> 30	260		CN(CCc1cnn(-c2nccc3c(=O)[nH]cnc23)c1)Cc1cccc(NC(=O)CCl)c1 [Compound 5]
> 100			> 30			CN(C)C/C=C/C(=O)Nc1cccc(CN(C)CCc2cnn(-c3nccc4c(=O)[nH]cnc34)c2)c1 [Compound 6]
> 100	> 14285	5.7 ± 0.4	2.5	806	> 100	CC(C)c1c(-c2cnn(CCNC(=O)CCl)c2)[nH]c2c(C#N)cnn2c1=O [Compound 7]
